Data set [1] concerns Leishmania major. The experiment in a line: Reversible inhibition of DHFR-TS/PTR1 in Leishmania major promastigote form in presence of excess folic acid.
The test system of data set [2] is Leishmania major. Nature of the data set: Antileishmanial activity against Leishmania major promastigotes measured after 24 hrs by alamar blue staining based fluorescence assay. The data set is classed as functional, organism-based. For orientation: Resazurin is reduced to fluorescent resorufin, in cell work by metabolically active cells.
Data set [3] in a line: Cytotoxicity against African green monkey Vero cells after 72 hrs by crystal violet staining based assay. It counts as cell-based. To be noted: chlorocebus sabaeus.
Data set [4] can be described thus: Selectivity index, ratio of CC50 for African green monkey Vero cells to IC50 for leishmania major promastigote. To be noted: read-out: Ratio CC50/IC50. It counts as toxicity.
For data set [5], the system named is Leishmania major. Nature of the data set: Potency index, ratio of miltefosine IC50 for Leishmania major amastigote form to compound IC50 for Leishmania major amastigote form. The data set is classed as functional.
The test system of data set [6] is Leishmania major. Nature of the data set: Antileishmanial activity against Leishmania major amastigotes measured after 72 hrs by resazurin dye based fluorescence assay. It counts as functional, organism-based.
Data set [7] relates to Leishmania major. The experiment in a line: Antileishmanial activity against Leishmania major promastigote form assessed as parasite survival at 5.9 uM measured after 48 hrs in presence of 100 uM folinic acid relative to control. The data set is classed as functional.
Data set [8] has as its system Leishmania major. Nature of the data set: Inhibition of DHFR-TS/PTR1 in Leishmania major promastigote form assessed as parasite survival at 5.9 uM measured after 48 hrs in presence of 100 uM folic acid relative to control.
The subject of data set [9] is Leishmania major. Nature of the data set: Antileishmanial activity against Leishmania major promastigote form assessed as parasite survival at 5.9 uM measured after 48 hrs in presence of 20 uM folinic acid relative to control. The data set is classed as functional.
In data set [10] the test system is Leishmania major. Nature of the data set: Inhibition of DHFR-TS/PTR1 in Leishmania major promastigote form assessed as parasite survival at 5.9 uM measured after 48 hrs relative to control.
Data set [11] concerns Leishmania major. The experiment in a line: Inhibition of DHFR-TS/PTR1 in Leishmania major promastigote form assessed as parasite survival at 5.9 uM measured after 48 hrs in presence of 20 uM folic acid relative to control.
The subject of data set [12] is Leishmania major. The experiment in a line: Inhibition of DHFR-TS/PTR1 in Leishmania major promastigote form assessed as parasite survival at 4.5 uM measured after 48 hrs in presence of 20 uM folic acid relative to control.
In data set [13] the test system is Leishmania major. Nature of the data set: Inhibition of DHFR-TS/PTR1 in Leishmania major promastigote form assessed as parasite survival at 4.5 uM measured after 48 hrs relative to control.
For data set [14], the system named is Leishmania major. The experiment in a line: Antileishmanial activity against Leishmania major promastigote form assessed as parasite survival at 4.5 uM measured after 48 hrs in presence of 20 uM of folinic acid relative to control. It counts as functional.
The test system of data set [15] is Leishmania major. Nature of the data set: Inhibition of DHFR-TS/PTR1 in Leishmania major promastigote form assessed as parasite survival at 4.5 uM measured after 48 hrs in presence of 100 uM of folic acid relative to control.
The test system of data set [16] is Leishmania major. The experiment in a line: Antileishmanial activity against Leishmania major promastigote form assessed as parasite survival at 4.5 uM measured after 48 hrs in presence of 100 uM of folinic acid relative to control. It counts as functional.
The test system of data set [17] is Leishmania major. The conditions noted are these: 100 uM.
Description: Inhibition of DHFR-TS/PTR1 in Leishmania major promastigote form assessed as parasite survival at 100 uM measured after 48 hrs relative to control
The subject of data set [18] is Leishmania major. The conditions noted are these: 100 uM. The source holds these as a separate data set.
Description: Inhibition of DHFR-TS/PTR1 in Leishmania major promastigote form assessed as parasite survival at 100 uM measured after 48 hrs in presence of 100 uM folic acid relative to control

Calls of active or inactive are those of the source. No cut-off for these calls is given here.

In the case of `COc1ccc(-c2ccc(C(=O)NNC(=S)Nc3ccc(C)cc3)c(C)n2)cc1OC`, in the data set on Leishmania major [1], the “reversible inhibition (active/inactive)” value is “Active”. The concentration for half-maximal inhibition (IC50) with Leishmania major [2] amounted to 10.2 µM.

As to `COc1cc(-c2ccc(C(=O)NNC(=O)Nc3ccccc3)c(C)n2)cc(OC)c1OC`, the “reversible inhibition (active/inactive)” value in the data set on Leishmania major [1] is “Active”. This compound also yielded an IC50 in the data set on Leishmania major [2] of 19.8 µM.

In turn, `COc1ccc(NC(=S)NNC(=O)c2ccc(-c3ccc(OC)c(OC)c3)nc2C)cc1` had a half-maximal cytotoxic concentration (CC50) at 72 h in data set [3] of 632 µM. Moreover, the “reversible inhibition (active/inactive)” value with Leishmania major [1] was “Active”. The results for the half-maximal inhibitory concentration (IC50) in the data set on Leishmania major [2] and with Leishmania major [6] were 6.4 µM and 4.8 µM, respectively. Also, the selectivity ratio in data set [4] was 98.8. Further, the “Ratio IC50” value in the data set with Leishmania major [5] was 1.2 - 2.2.

For `COc1cc(-c2ccc(C(=O)NNC(=S)Nc3ccccc3)c(C)n2)cc(OC)c1OC`, the half-maximal cytotoxic concentration (CC50) at 72 h in data set [3] came to 513 µM. For the same compound, the “reversible inhibition (active/inactive)” value in the data set on Leishmania major [1] was “Active”. Further, the IC50 is 5.7 µM in the data set with Leishmania major [2] and 4.2 µM in the data set on Leishmania major [6]. Also, the Survival with Leishmania major [7] is 88%; in the data set with Leishmania major [8] it was 84%; in the data set with Leishmania major [9] it was 75%; in the data set on Leishmania major [10], 25%; with Leishmania major [11], 72%. For the same compound, the selectivity ratio in [4] was determined as 90.1. Besides, the “Ratio IC50” value with Leishmania major [5] is given as 1.2 - 2.2.

For `COc1cc(-c2ccc(C(=O)NNC(=S)Nc3ccc(Cl)cc3)c(C)n2)cc(OC)c1OC`, the CC50 at 72 h in data set [3] was 523 µM. Further, the “reversible inhibition (active/inactive)” value in the data set with Leishmania major [1] is “Active”. The Survival with Leishmania major [12] came out at 78%; with Leishmania major [13] it was 23%; in the data set on Leishmania major [14], 81%; with Leishmania major [15], 87%; with Leishmania major [16] it was 93%. For the same compound, the half-inhibitory concentration (IC50) in the data set with Leishmania major [2] is 4.3 µM; with Leishmania major [6], 3.3 µM. In data set [4], the selectivity ratio amounted to 122. In addition, the “Ratio IC50” value in the data set with Leishmania major [5] is on record as 1.2 - 2.2.

Regarding `COc1ccc(-c2ccc(C(=O)NNC(=S)Nc3ccccc3)c(C)n2)cc1OC`, the “reversible inhibition (active/inactive)” value in the data set on Leishmania major [1] is “Active”. In the data set on Leishmania major [2], this compound had an IC50 of 9.2 µM.

For `COc1ccc(NC(=O)NNC(=O)c2ccc(-c3ccc(OC)c(OC)c3)nc2C)cc1`, in the data set with Leishmania major [1], the “reversible inhibition (active/inactive)” value was “Active”. The same compound returned a half-maximal inhibitory concentration (IC50) with Leishmania major [2] of 19.7 µM.

As to `COc1cc(-c2ccc(C(=O)NNC(=S)Nc3ccc(C)cc3)c(C)n2)cc(OC)c1OC`, in data set [3], the CC50 at 72 h was found to be 574 µM. Further, the “reversible inhibition (active/inactive)” value with Leishmania major [1] was “Active”. Moreover, the IC50 came to 6.1 µM with Leishmania major [2] and 5.8 µM with Leishmania major [6]. Besides, the selectivity ratio in data set [4] was 94.2. Also, the “Ratio IC50” value with Leishmania major [5] is given as 1.2 - 2.2.

For the compound `COc1ccc(-c2ccc(C(=O)NNC(=S)Nc3ccc(Cl)cc3)c(C)n2)cc1`, the “reversible inhibition (active/inactive)” value in the data set on Leishmania major [1] is “Active”. Besides, the concentration for half-maximal inhibition (IC50) with Leishmania major [2] was 16.7 µM.

In the case of `COc1ccc(-c2ccc(C(=O)NNC(=S)Nc3ccc(C)cc3)c(C)n2)cc1`, in the data set on Leishmania major [1], the “reversible inhibition (active/inactive)” value is “Active”. In addition, the IC50 with Leishmania major [2] worked out at 10.7 µM. Further, the “Ratio IC50” value in the data set with Leishmania major [5] is 1.2 - 2.2.

In turn, `COc1ccc(NC(=S)NNC(=O)c2ccc(-c3cc(OC)c(OC)c(OC)c3)nc2C)cc1` showed a CC50 at 72 h in [3] of 506 µM. Moreover, in the data set on Leishmania major [1], the “reversible inhibition (active/inactive)” value is “Active”. The half-inhibitory concentration (IC50) in the data set with Leishmania major [2] turned out to be 5.8 µM; in the data set with Leishmania major [6], 5.9 µM. In addition, the selectivity ratio in data set [4] was 87.2. Also, the “Ratio IC50” value in the data set with Leishmania major [5] was 1.2 - 2.2.

`CCCCCCCCCCCCCCCCOP(=O)([O-])OCC[N+](C)(C)C` [MILTEFOSINE]: the concentration for half-maximal inhibition (IC50) was determined as 7.6 µM in the data set with Leishmania major [2] and 7.3 µM in the data set with Leishmania major [6].

As to `COc1ccc(-c2ccc(C(=O)NNC(=O)Nc3ccccc3)c(C)n2)cc1`, the “reversible inhibition (active/inactive)” value with Leishmania major [1] was “Active”. Moreover, in the data set on Leishmania major [2], the IC50 was 18.6 µM.

As to `COc1ccc(-c2ccc(C(=O)NNC(=S)Nc3ccccc3)c(C)n2)cc1`, the “reversible inhibition (active/inactive)” value with Leishmania major [1] was “Active”. Besides, in the data set on Leishmania major [2], the half-inhibitory concentration (IC50) is 12 µM.

On to `COc1cc(Cc2cnc(N)nc2N)cc(OC)c1OC`, for which the “reversible inhibition (active/inactive)” value in the data set on Leishmania major [1] was “Active”. Besides, the Survival stood at 69% in the data set on Leishmania major [17] and 99% in the data set with Leishmania major [18].

With `COc1ccc(-c2ccc(C(=O)NNC(=O)Nc3ccccc3)c(C)n2)cc1OC`, the “reversible inhibition (active/inactive)” value with Leishmania major [1] is “Active”. This compound also came in with an IC50 in the data set on Leishmania major [2] of 16.7 µM.

Consider `COc1ccc(NC(=O)NNC(=O)c2ccc(-c3ccc(OC)cc3)nc2C)cc1`, for which the “reversible inhibition (active/inactive)” value in the data set on Leishmania major [1] was “Active”. The same compound displayed an IC50 in the data set on Leishmania major [2] of 20 µM.

On to `COc1ccc(NC(=S)NNC(=O)c2ccc(-c3ccc(OC)cc3)nc2C)cc1`, for which, in the data set with Leishmania major [1], the “reversible inhibition (active/inactive)” value is “Active”. In the data set on Leishmania major [2], this compound registered an IC50 of 11.4 µM.

As for `COc1cc(-c2ccc(C(=O)NNC(=O)Nc3ccc(Cl)cc3)c(C)n2)cc(OC)c1OC`, the “reversible inhibition (active/inactive)” value with Leishmania major [1] is “Active”. For the same compound, the IC50 in the data set with Leishmania major [2] worked out at 23.9 µM.

On to `COc1ccc(-c2ccc(C(=O)NNC(=O)Nc3ccc(Cl)cc3)c(C)n2)cc1OC`, for which the “reversible inhibition (active/inactive)” value in the data set with Leishmania major [1] is “Active”. In the data set on Leishmania major [2], this compound yielded a concentration for half-maximal inhibition (IC50) of 18.8 µM.

For `COc1ccc(NC(=O)NNC(=O)c2ccc(-c3cc(OC)c(OC)c(OC)c3)nc2C)cc1`, the “reversible inhibition (active/inactive)” value in the data set with Leishmania major [1] is “Active”. This compound also had an IC50 in the data set on Leishmania major [2] of 22.5 µM.

With `COc1ccc(-c2ccc(C(=O)NNC(=S)Nc3ccc(Cl)cc3)c(C)n2)cc1OC`, the “reversible inhibition (active/inactive)” value with Leishmania major [1] is “Active”. Further, 17.4 µM corresponded to half-maximal inhibition with Leishmania major [2] (IC50).

`COc1ccc(-c2ccc(C(=O)NNC(=O)Nc3ccc(Cl)cc3)c(C)n2)cc1`: in the data set on Leishmania major [1], the “reversible inhibition (active/inactive)” value is “Active”. The compound further gave an IC50 in the data set with Leishmania major [2] of 21.9 µM.

As usually defined, the IC50 is the concentration that gives 50% inhibition. In general, CC50 refers to the concentration that lowers cell viability or growth by half.

The values above are taken from ChEMBL document CHEMBL4304772, “Synthesis, in vitro biological evaluation and in silico studies of certain arylnicotinic acids conjugated with aryl (thio)semicarbazides as a novel class of anti-leishmanial agents” (Eur J Med Chem, 2019).
